{"source": "patent US12350259B2", "about": "“Methods of treating migraine” (Allergan Pharmaceuticals International Limited, priority 2021, dated 2025)", "key": {"[1]": {"experiment": "Atogepant-quinidine gluconate interaction study: safety", "assay_type": "in vivo, human", "conditions": "during quinidine gluconate administration; 33 enrolled", "excerpt": "Atogepant PK parameters calculated were peak plasma concentration (Cmax); time to Cmax (tmax); and area under plasma concentration—time curve from time 0 to time t (AUC0-t) and infinity (AUC0-∞). […] Safety assessments included clinical laboratory values, vital signs, electrocardiograms, and […] adverse events (TEAEs)."}, "[2]": {"experiment": "Atogepant-topiramate interaction study: safety and tolerability", "assay_type": "in vivo, human"}, "[3]": {"conditions": "topiramate; cited from earlier work"}, "[4]": {"experiment": "Atogepant-topiramate interaction study, cohort 2: topiramate steady-state PK", "assay_type": "in vivo, human", "conditions": "for AUC / Cmax: both sexes, human, plasma", "experimental": "An open-label, single-center, multiple-dose 2-cohort, phase 1 trial was carried out to assess the potential of a PK DDI between atogepant and topiramate in healthy adult participants. Eligible participants were enrolled either in cohort 1 to evaluate the effect of topiramate 100 mg twice daily on the PK of atogepant […] once daily or in cohort 2 to evaluate the effect of atogepant 60 mg once daily on the PK of topiramate 100 mg twice daily. Participants in cohort 1 received atogepant alone on days 1-7 and atogepant plus topiramate on days 8-17. Participants in cohort 2 received topiramate alone on days 1-10 and topiramate plus atogepant on days 11-17.\nThe duration of the study was 25 days (±2 days), which included day −1 through the follow-up visit and excluded the screening period. The screening period was up to 21 days before day 1 and the intervention period was a total of 19 days, at which point the end of dosing visit was conducted. Cerebrospinal fluid (CSF) samples for measurement of atogepant concentration were collected via lumbar puncture in a subset of consenting participants in cohort 1. CSF samples were collected once from individual participants in the CSF collection subset at 2 or 6 hours after the morning dose on day 6 for cohort 1. Clinical laboratory tests were performed at the follow-up visit, which was conducted on day 24 (7 [±2] days after the last dose of study medication.\nParticipants were excluded if they had clinically significant abnormal electrocardiogram (ECG) results or QT prolongation (QTcF ≥450 msec for males, ≥470 for females), or any clinical condition or previous surgery that may affect the absorption, distribution, biotransformation, or excretion of atogepant or topiramate.\nThe primary endpoints were area under the plasma concentration-time curve during dosing interval at steady state (AUC0-tau,ss) and maximum plasma drug concentration at steady state (Cmax,ss) of atogepant and topiramate when coadministered and when administered alone. Additional PK parameters included time of maximum plasma drug concentration at steady state (Tmax,ss), average plasma drug concentration at steady state (Cavg,ss), and minimum plasma drug concentration at steady state (Cmin,ss) of topiramate and atogepant when coadministered and when administered alone."}, "[5]": {"experiment": "Atogepant-itraconazole interaction study: safety and tolerability", "assay_type": "in vivo, human", "conditions": "itraconazole alone", "excerpt": "The primary objective of this study was to assess the effects of multiple dose itraconazole on the pharmacokinetics of a single dose of atogepant. The primary endpoints were PK parameters of atogepant derived from plasma concentrations. The secondary objectives of the study were to assess the safety and tolerability of atogepant and itraconazole given alone and in combination, and to establish the correlation between concentrations of atogepant in dried blood sample (DBS) (obtained via finger stick) and plasma. The secondary endpoints included AEs, clinical laboratory parameters, vital signs, ECG, and physical examination, and correlation of concentrations of atogepant in DBS and plasma. Subjects who satisfied the inclusion and exclusion criteria were assigned to a single fixed-treatment sequence in which they received Treatment A followed by Treatment B; there was a 7-day washout period between treatments. • Treatment A: Single oral 60 mg dose of atogepant (tablet) under fasted conditions on Day 1 • Treatment B • Days 8-14: Itraconazole 200 mg (tablet) orally once daily under fed conditions. • Day 15: Itraconazole 200 mg coadministered with atogepant 60 mg (tablet) under fasted conditions. • Days 16 to 17: Itraconazole 200 mg (tablet) once daily under fed conditions."}, "[6]": {"conditions": "topiramate 100 mg BID + atogepant 60 mg QD, day 17"}, "[7]": {"conditions": "topiramate 100 mg BID alone, day 10"}, "[8]": {"conditions": "with atogepant coadministration"}}, "note": "Where two headings read alike, the source gives them in different places.", "data": [{"smiles": "C=C[C@H]1C[N@@]2CC[C@H]1C[C@@H]2[C@@H](O)c1ccnc2ccc(OC)cc12", "note": "[quinidine gluconate, reference compound]", "values": [{"measurement": "participants discontinued because of TEAEs (all electrocardiogram QT prolongation)", "setting": "[1]", "value": 10}]}, {"smiles": "CC1(C)O[C@@H]2[C@@H](CO[C@@]3(COS(N)(=O)=O)OC(C)(C)O[C@@H]23)O1", "note": "[topiramate]", "values": [{"measurement": "Deaths, %", "setting": "[2]; cohort 2, topiramate + atogepant (n = 24)", "value": "(0) %"}, {"measurement": "Deaths, %", "setting": "[2]; cohort 2, topiramate alone (n = 25)", "value": "(0) %"}, {"measurement": "TEAEs leading to discontinuation, %", "setting": "[2]; human, in vivo", "value": "(8.0) %"}, {"measurement": "TESAEs, %", "setting": "[2]; human, in vivo", "value": "(0) %"}, {"measurement": "Treatment-related TEAEs, %", "setting": "[2]; human, in vivo", "value": "(52.0) %"}, {"measurement": "Treatment-related TESAEs, %", "setting": "[2]; human, in vivo", "value": "(0) %"}, {"measurement": "constipation reported", "setting": "[2]; human, in vivo", "value": 2, "unit": "participants"}, {"measurement": "nausea reported", "setting": "[2]; human, in vivo", "value": 3, "unit": "participants"}, {"measurement": "TEAEs, %", "setting": "[2]; human, in vivo, 10 days", "value": "(64.0) %"}, {"measurement": "elimination half-life", "setting": "[3]", "value": "approximately 21 hours"}, {"measurement": "AUC", "setting": "[4]; 100 mg, Topiramate Alone, read-out: AUC0-tau,ss Geometric LSM", "value": 74400, "unit": "ng·h/mL"}, {"measurement": "Cmax", "setting": "[4]; 100 mg, Topiramate Alone, read-out: Cmax,ss Geometric LSM", "value": 7500, "unit": "ng/mL"}, {"measurement": "AUC", "setting": "[4]; 100 mg, topiramate 100 mg BID alone, day 10, read-out: AUC0-tau,ss", "value": 76500, "unit": "ng·h/mL"}, {"measurement": "Cmax", "setting": "[4]; 100 mg, topiramate 100 mg BID alone, day 10, read-out: Cmax,ss", "value": 7700, "unit": "ng/mL"}, {"measurement": "AUC", "setting": "[4]; Topiramate and Atogepant, read-out: AUC0-tau,ss Geometric LSM", "value": 70300, "unit": "ng·h/mL"}, {"measurement": "Cmax", "setting": "[4]; Topiramate and Atogepant, read-out: Cmax,ss Geometric LSM", "value": 7000, "unit": "ng/mL"}, {"measurement": "AUC", "setting": "[4]; topiramate 100 mg BID + atogepant 60 mg QD, day 17, read-out: AUC0-tau,ss", "value": 72600, "unit": "ng·h/mL"}, {"measurement": "Cmax", "setting": "[4]; topiramate 100 mg BID + atogepant 60 mg QD, day 17, read-out: Cmax,ss", "value": 7300, "unit": "ng/mL"}, {"measurement": "delay of median Tmax,ss of topiramate", "setting": "[4]; coadministered with atogepant", "value": 30, "unit": "min"}, {"measurement": "Cavg,ss", "setting": "[4]; [6]", "value": 6.0, "unit": "µg/mL"}, {"measurement": "Cmin,ss", "setting": "[4]; [6]", "value": 4.7, "unit": "µg/mL"}, {"measurement": "Tmax,ss (median)", "setting": "[4]; [6]", "value": 2.0, "unit": "h"}, {"measurement": "Cavg,ss", "setting": "[4]; [7]", "value": 6.4, "unit": "µg/mL"}, {"measurement": "Cmin,ss", "setting": "[4]; [7]", "value": 5.2, "unit": "µg/mL"}, {"measurement": "Tmax,ss (median)", "setting": "[4]; [7]", "value": 1.5, "unit": "h"}, {"measurement": "reduction of topiramate AUC0-tau,ss", "setting": "[4]; [8]", "value": 5, "unit": "%"}, {"measurement": "reduction of topiramate Cmax,ss", "setting": "[4]; [8]", "value": 6, "unit": "%"}]}, {"smiles": "CCC(C)n1ncn(-c2ccc(N3CCN(c4ccc(OCC5COC(Cn6cncn6)(c6ccc(Cl)cc6Cl)O5)cc4)CC3)cc2)c1=O", "note": "(stereo not drawn) [itraconazole, reference compound]", "values": [{"measurement": "subjects experiencing constipation (TEAE)", "setting": "[5]", "value": 1, "unit": "subject"}, {"measurement": "subjects experiencing headache (TEAE)", "setting": "[5]", "value": 2, "unit": "subjects"}]}]}
